According to patent US12612358B2, “Resorcinol-based compounds and uses thereof” (priority 2020, dated 2026):

Tests used:
[1] = IV pharmacokinetics; type: in vivo; conditions: 1 mpk
[2] = tested on: PANC-1 tumors; assay: PANC-1 subcutaneous xenograft in athymic nu/nu mice; type: in vivo
[3] = tested on: PANC9; assay: CellTiter-Glo cell proliferation, patient-derived PANC9 tumorspheres; type: cell-based; conditions: Homo sapiens, 72 h, three days treatment, read-out: IC50 category
Description: (§1) Effects of Compound-5B on proliferation and Id-1 expression in pancreatic cell lines. Compound-5B was next tested for inhibition of cell viability/proliferation in the three pancreatic cancer cell lines and two primary patient-derived cancer cell lines. Compound-5B inhibited cell viability/proliferation of all the cancer cell lines (Table 2). The culturing condition for the pancreatic cell lines was similar to those used in the breast cancer lines, with the exception of the primary patient-derived pancreatic cancer cell lines (PANC9 and PANC13). For determining inhibition of cell proliferation in patient-derived pancreatic cancer cells were cultured in a T75 ultra low attachment flasks with DMEM/F12 media supplemented with B27, penicillin/streptomycin (10,000 u/mL), 50 µg/mL human epidermal growth factor (hEGF), 50 μg/mL human fibroblast growth factor, and 5 μg/mL heparin. Cells were plated in a 384-well plate and incubated for three days to promote the formation of tumorspheres. Cells were then treated with Compound-5B for three days. Cell proliferation of pancreatic cells in the presence of drug was measured using the CellTiter-Glo luminescent Assay and IC50 values were calculated (Table 2). The IC50 and corresponding 95% confidence limits (CL) were calculated using non-linear regression analysis.

[4] = tested on: Id-1; assay: Id-1 protein expression in 4T1 breast cancer cells; type: cell-based; conditions: mouse 4T1 breast cancer cells
Protocol: Quantitative Western analysis: Cells are cultured and treated in 6-well dishes. After the cells are washed twice with cold PBS, lysis buffer is added. The cells are then lysed by freezing for 10 min at −70° C. and then thawing at ambient temperature. The cell lysate is collected and the protein content is determined by using Bradford reagent. Equal amounts of protein are heated at 90° C. in Laemmli sample buffer which also included β-mercaptoethanol. The samples are then loaded onto a precast SDS-PAGE gel (Bio-Rad Laboratories, Hercules, CA). After which, proteins are then electroblotted onto an Immobilon membrane (Millipore, Billerica, MA) overnight at 2-4° C. […]
Antitumor activity of Compound-5B in vivo in breast cancer. […] We also determined whether it produced a similar effect in mouse 4T1 breast cancer cells. […] Lung metastasis % (total metastatic foci in treated/vehicle×100) was evaluated (FIG. 4B). […] Animals with established tumors (average volume of 100 mm^3) were randomized and treated once daily, 6 days a week, with i.p., injections of vehicle, or 1 mg/kg Compound-5B, tumors were measured once weekly by an operator blinded to the treatment groups. Changes in tumor volume (mm^3) were calculated as (length×width2)/2. *indicates statistically significant differences between vehicle and Compound-5B (p<0.05, Two-way ANOVA repeated measures, and Tukey's multiple comparisons test).

[5] = tested on: DU145 (prostate); assay: Cell proliferation, DU145 prostate cancer cells; type: cell-based; conditions: Homo sapiens, DU-145, read-out: IC50 category
Description: (§2) Effects of Compound-5B on cell proliferation in additional cancer cells: To determine whether Compound-5B would have broad based anticancer activity, we study whether Compound-5B would be effective at inhibiting cell proliferation in a variety of cancers overexpressing Id-1. The assay conditions used were identical to those presented for breast and pancreatic cancers. Indeed, Compound-5B was potent at inhibiting cell proliferation in blood cancer (leukemia), glioblastoma, prostate, and ovarian cancer.

[6] = tested on: MDA-MB231 D3H; assay: CellTiter-Glo viability/proliferation assay, MDA-MB231 breast cancer cells; type: cell-based; conditions: Homo sapiens, MDA-MB-231, 48 h; CellTiter-Glo, two-day treatment; read-out: Inhibition of MDA-MB231 D3H
[7] = tested on: Id-1; assay: Id-1 expression in MDA-MB231 cells (Western analysis); type: cell-based, human
Protocol: (§3) Quantitative Western analysis: Cells are cultured and treated in 6-well dishes. After the cells are washed twice with cold PBS, lysis buffer is added. The cells are then lysed by freezing for 10 min at −70° C. and then thawing at ambient temperature. The cell lysate is collected and the protein content is determined by using Bradford reagent. Equal amounts of protein are heated at 90° C. in Laemmli sample buffer which also included β-mercaptoethanol. The samples are then loaded onto a precast SDS-PAGE gel (Bio-Rad Laboratories, Hercules, CA). After which, proteins are then electroblotted onto an Immobilon membrane (Millipore, Billerica, MA) overnight at 2-4° C. The membrane is then blocked for 1 hour with 5% nonfat dry milk which included TBS+Tween. The membranes are then incubated with an anti-Id-1 primary antibody, and then an appropriate secondary antibody was used. Blots are incubated for 45 min and then washed 4 times with TBS+Tween for 15 min each. […]
(§4) Effects of Compound-5B on breast cancer cell proliferation, Id-1 expression and invasion in culture. […] The ability of the cells to migrate and invade in modified Boyden chambers was determined. The percentage relative invasion was calculated as the effect on treated cells/vehicle cells×100. […]

[8] = tested on: cannabinoid receptors; assay: Cannabinoid receptor binding
Protocol: Eurofin's Kinome scan assay was used to screen Compound-5B against 468 kinases at 1 μM and 10 μM concentrations. […] In order to understand any potential pharmacological cross reactivity, a known contributor to clinical adverse drug reactions Compound-5B was tested in SAFETY scan E/IC50 ELECT.

[9] = tested on: PANC13; assay: CellTiter-Glo cell proliferation, patient-derived PANC13 tumorspheres; type: cell-based; conditions: Homo sapiens, 72 h, three days treatment, read-out: IC50 category
Description: as §1

[10] = tested on: Id-1; assay: Id-1 expression in primary patient-derived BRC25 cells; type: cell-based, human
Protocol: as §3, §4

[11] = Mouse liver microsome stability (Eurofins ADME); type: in vitro ADME
Protocol: Evaluating ADME of Compound-5B in vitro. It is important to evaluate ADME first in culture as it allows for the selection of the best candidate for PK analysis in vivo. ADME analysis of Compound-5B was performed by Eurofins.

[12] = target: T1, HRH2 (Histamine receptor) (Homo sapiens, UniProt P25021); assay: SAFETY scan E/IC50 ELECT, HRH2; type: biochemical; conditions: read-out: inhibition against HRH2 (mild)
T1 construct: purchased Eurofin's

[13] = tested on: Kasumi −1 (leukemia); assay: Cell proliferation, Kasumi-1 leukemia cells; type: cell-based; conditions: Homo sapiens, read-out: IC50 category
Description: as §2

T1 sequence (P25021 whole entry): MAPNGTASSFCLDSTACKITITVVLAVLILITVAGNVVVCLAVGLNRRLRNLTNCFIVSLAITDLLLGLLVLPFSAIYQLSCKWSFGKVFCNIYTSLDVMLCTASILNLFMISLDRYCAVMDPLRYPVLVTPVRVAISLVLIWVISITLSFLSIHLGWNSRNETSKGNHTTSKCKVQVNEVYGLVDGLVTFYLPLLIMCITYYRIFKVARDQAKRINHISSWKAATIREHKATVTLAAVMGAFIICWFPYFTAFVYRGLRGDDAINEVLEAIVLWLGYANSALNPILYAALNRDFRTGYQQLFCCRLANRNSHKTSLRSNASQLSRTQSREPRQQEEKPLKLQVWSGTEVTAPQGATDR

Q: Which results are given for CCCCCCC(C)(C)c1cc(O)c(C(=O)Nc2ccccc2)c(O)c1 [Compound 5B, 2,6-dihydroxy-4-(2-methyloctan-2-yl)-N-phenylbenzamide]?
A: clearance [1]: low; exposure [1]: good; half-life [1]: acceptable; weight loss (metric of drug toxicity) ([2]; PANC-1 tumor mice, Compound-5B 10 mg/kg i.p. daily, gemcitabine 50 mg/kg i.p. three times a week): no significant weight loss; growth of PANC-1 tumors ([2]; athymic nu/nu mice, 10 mg/kg i.p. once daily): reduced the growth of PANC-1 tumors as effectively as gemcitabine; IC50 [3]: < 0.5 µM; Id-1 protein expression [4]: downregulation of Id-1 protein expression; IC50 [5]: < 0.5 µM; IC50 [6]: < 0.5 µM; inhibition of Id-1 expression [7]: significant potency; binding to the cannabinoid receptors [8]: does not bind; IC50 [9]: < 0.5 µM; inhibition of Id-1 expression [10]: significant potency; clearance (microsomal stability assays) [11]: acceptable; half-life (microsomal stability assays) [11]: acceptable; stability in mouse liver microsomes [11]: good; IC50 [12]: 0.64 to 0.75 µM; IC50 [13]: < 0.5 µM
